According to US8329643B2, “PIMAP39 modulates LPS-induced inflammatory response” (Trustees of Boston University, priority 2008, dated 2012):
“Also recorded” adds a separate entry of the source. No end group written: not given here.

What was measured:
[1] = tested on: white blood cells within the liver sections; assay: Fluorescence microscopy detection of FITC-labeled PIMAP39 in mouse liver sections after tail vein injection; assay type: in vivo; conditions: 1 mg FITC-PIMAP39 by tail vein injection, one hour post injection, vs DMSO alone
Description: Macrophage samples: Cells (5×10^3) from 3 month old mice were seeded over cover slips (22 mm) in 6-well plates and were treated with 500 ng/ml FITC-PIMAP39 (B) or DMSO alone (A) and continuously incubated overnight. Cover slips were removed and cells were stained with 50 nM LysoTracker Red DND-99 (Invitrogen) for 1.5 hours and then air-dried. Tissue section samples: Mice were treated with 1 mg of FITC-PIMAP39 (E, F) or DMSO alone as control (C, D), by tail vein injection as described. One hour post injection mice were sacrificed and their livers were harvested. Harvested livers were set in uniform orientations in molds using Histoprep™ (Fisher). 10 μm thick cross-sections were cut and transferred with a paintbrush to glass slides followed by H & E staining. Cross-sections were made at −24° C. using an HM505E cryostat (Microm). Both the treated cells and sections above were exposed to visible light for structural identification (C & E) and fluorescent light for signal location (A, B, D & F) by Olympus BX40 microscope at 200× (A & B) or 1000× (C-F) magnification and photographed. The FITC-PIMAP39-induced fluorescent signal in some macrophages (B) or in the leukocytes within the veins of the liver (F) was observed. The images were taken with a MicroFIRE camera under exposure time (1 second for fluorescent light, 30 second for visible light). […]

[2] = tested on: LPS-induced endotoxic shock; assay: Endotoxic shock assay: survival of mice after lethal dose of LPS + D-Gal; assay type: in vivo, mouse; conditions: lethal dose LPS + control peptide
Description: (§1) (A) Weight-matched wild-type mice (n=15) were injected intraperitoneal (i.p.) with a lethal dose of LPS (1 mg D-Gal+12.5 ng LPS per gram body weight) followed immediately by tail vein injection of DMSO (black line), 40 µg/g SCpep as control (green line) or […] PIMAP39 (red line). The treated mice were monitored for their behavior and mortality every hour. The survival time of each treated mouse was graphed. […] (B) Blood was collected every 2 hours post injection for a total duration of 6 hours. Mice were warmed under heating lamps to promote blood flow and a small incision was made on the tail. About 10-50 μl of blood was collected per animal at each time point (2, 4 or 6 hours). […] Pooled plasma samples from the mice within each group were measured in triplets by ELISA (Abraxis) to see the effects of PIMAP39 on TNF-α production. ELISA immunoreactivity was quantitated using a microplate reader (Bio-Rad) and the results from the 6 hr mark were graphed (only the data for LPS+DMSO and LPS+PIMAP39 are presented here due to the similarity between LPS+DMSO and LPS+SCepetide). […]
(§2) To investigate how PIMAP39 mediates endotoxic shock, 3 month old, weight matched mice were treated with a lethal dose of LPS (12.5 ng LPS+1 mg D-Gal per gram body weight) followed immediately by a tail vein injection of PIMAP39 or controls. The treated mice were monitored for their behavior and mortality every hour. […]

[3] = tested on: TNF-α; assay: Plasma TNF-α by ELISA in the endotoxic shock assay; assay type: in vivo, mouse; conditions: 6 hr mark
Description: as §1, §2

presence / uptake of peptide in white blood cells in vivo (liver sections, fluorescent signal) [1]	Sequence	time at which deaths occurred [2] [h]	time at which most mice became sick [2] [h]	plasma TNF-α compared with LPS+DMSO [3]
cell permeable; also recorded: taken up	KYGATTVVRVCEVTYDKTPLEKDGITVV [PIMAP39]			
	VTGKLTDTEVVTAYVIDEPKYVCRVTGK [SCpep]	6 to 8	3 to 4	similarity
